Results reported in patent US20250368963A1, “PROXIMAL-BIASED KIDNEY ORGANOIDS” (UNIVERSITY OF SOUTHERN CALIFORNIA, priority 2024, published 2025).
Entries after “also recorded” stand apart in the source; their conditions may differ.

Key:
[1] = test system: human iPSC-derived kidney organoid nephrons; experiment: Whole-mount immunofluorescence quantification of organoid nephrons; type: cell-based
[2] = test system: human iPSC-derived kidney organoids; experiment: Bulk mRNA-sequencing of whole kidney organoids; type: cell-based
Method: mRNA-sequencing and data analyses: Whole organoid samples (3 independent biological replicates per timepoint, per condition for differentiation days 10 and 12, and 2 replicates for differentiation days 14 and 18) were prepared and purified according to the RNeasy Mini Kit (Qiagen, 74104). Purified RNA was sent to Novogene for sequencing. Reads were aligned to the hg38 Ensembl 105 annotation using STAR version 2.7.10a. A noise-reduction filter was applied to keep genes in which the maximum count in at least one sample was greater than or equal to 10. Partek Flow version 10.0 was then used to normalize these raw feature counts following the transcripts per million (TPM) normalization method. After filtering genes with TPM values greater than or equal to 25 in at least one sample, Z-score averages were calculated and heatmaps were clustered using pheatmap. Separately, gene set enrichment analyses were performed specifically on Day 12 replicate samples by first normalizing noise-reduced feature counts using the DESeq2 median ratio method, as recommended for gene set enrichment analyses. Partek Flow version 10.0 was then subsequently used for gene set enrichment analyses. Data are deposited with GEO accession number GSE264217 and will be made publicly available as of the date of publication.

[3] = test system: kidney organoid nephrogenic cells; experiment: Single-cell RNA-sequencing of kidney organoids; type: cell-based, human
Method: Kidney organoid cell dissociation: Approximately 6 organoids from multiple independent wells of both untreated and treated (48 hour culture with 10 μM LY294002 between days 10 and 12) conditions were collected at differentiation days 10, 12, 14, and 18 for single-cell RNA-sequencing, from separate differentiation batches. The organoids were dissociated using Accumax (Stem Cell Technologies, 07921) at 37° C./5% CO2 for 35 minutes and pipetted twenty times with a P-1000 wide-bore pipette tip every 5 minutes. The dissociation was neutralized by using a 2× volume of AutoMACS Running Buffer (Miltenyi Biotec, 130-091-221). Cells were pelleted by centrifugation at 4° C. for 3 minutes at 300×g. After resuspending the pellet in 2 mL of AutoMACS Running Buffer, cell suspensions were strained through 40 μm strainer (VWR, 21008-949), washing the filter with an additional 1 mL AutoMACS. The flow-through was pelleted, again at 300×g in a 4° C. for 3 minutes. […]
SPLiT-seq single-cell RNA-sequencing data collection and analyses: SPLiT-seq cell processing. […] Fixed cells were then stored at −80° C. until all samples were ready to be processed with the Evercode WT v2 single-cell RNA-sequencing platform (Parse Biosciences, ECW02030). […]

[4] = test system: E12.5 mouse kidney explants; experiment: Mouse kidney organ culture with inhibitors, immunofluorescence; type: cell-based; settings: mouse kidney explants cultured 48 hours with inhibitor(s)
Method: Mouse kidney explants and culture: Pregnant female Swiss Webster mice were euthanized on day E12.5 of pregnancy via CO2 following appropriate University of Southern California IACUC approved protocol. Embryos were removed and placed into PBS before dissecting out kidneys for explant culture as described below. Mouse kidney organ culture: Kidneys were dissected from E12.5 embryos and cultured for 48 hours at 37° C./5% CO2 in DMEM. Treatment condition culture media was initially supplemented with 20 μM LY294002, 2 μM DAPT (Tocris 2634), or both, before 48 hours of culture, following prior studies. After culture, mouse kidney explants were prepared for immunofluorescent analyses as described below for organoids.

[5] = test system: HNF4A-YFP control and PB organoids; experiment: DAPT treatment of HNF4A-YFP organoids after Ly29 withdrawal; type: cell-based, human; settings: DAPT 48 hours between days 12 and 14, control and PB conditions
Method: To determine whether HNF4A^+ cell differentiation is Notch-signaling dependent, the study treated HNF4A-YFP control and PB organoids with DAPT for 48 hours between days 12 and 14, after Ly29 withdrawal (FIGS. 16E-16F). […] In DAPT conditions, YFP− structures still developed but were HNF1B^+/JAG1^+/HNF4A− (FIG. 16E), indicating Notch signaling is required for the transition from HNF1B^+ to HNF4A^+ cells, as anticipated. PB organoids contained more HNF4A^+ structures than other conditions, and controls formed more HNF4A^+ structures than DAPT-treated conditions (pvalues <0.01) (FIG. 16G).

O=c1cc(N2CCOCC2)oc2c(-c3ccccc3)cccc12 [Ly29, LY294002]
HNF1B+ nephron size increase ([1]; day 12 organoids, vs controls): 1.64 fold
JAG1+ nephron size increase ([1]; day 12 organoids, vs controls): 2.36 fold
abundance of HNF1B within each nephron, increase ([1]; day 12 organoids, vs controls): 1.22 fold
sum total area of HNF4A+ organoid nephron segments, increase ([1]; day 18, n=3 organoids, vs controls): 2.83 fold
average size of individual HNF4A+ segments, increase ([1]; day 18 organoids, vs controls): 1.30 fold
total number of HNF4A+ segments per organoid, increase ([1]; day 18 organoids, vs controls): 4.02 fold
HNF1B expression upregulated ([2]; RNA-sequencing, day 12, 48 hr treatment, vs control): 2.88 fold
increase in JAG1 expression ([2]; RNA-sequencing, day 12, treated days 10-12, vs control): 1.78 fold
increase in HNF4A transcript levels ([2]; bulk RNA-sequencing, day 18, vs controls): 2.31 fold
increase in HNF4G transcript levels ([2]; bulk RNA-sequencing, vs controls): 1.72 fold
HNF4A expression at day 12 ([2]; day 12, not detected): < 1.7 TPM
share of all HNF4A+ cells that originated from the PB condition ([3]; days 12, 14, 18 integrated): 72.7%
share of all HNF4A+ proximal tubule precursors that originated from the PB condition ([3]; scaled for total cell numbers): 70.8%

C[C@H](NC(=O)Cc1cc(F)cc(F)c1)C(=O)N[C@H](C(=O)OC(C)(C)C)c1ccccc1 [DAPT]
Hnf4a expression [4]: blocked Hnf4a expression
nephron elongation and HNF1B/HES1 upregulation ([1]; day 12, cultured with DAPT, either with or without Ly29): did not elongate or further upregulate HNF1B; also recorded: did not upregulate HNF1B or HES1
HNF4A-YFP [5]: reduced HNF4A-YFP
